Measured values from patent publication US11702630B2, “In vitro methods of differentiating stem cells into neurons and neurons generated using the same” (The J. David Gladstone Institutes, a testamentary trust …, priority 2016, dated 2023).

What was measured:
Assay type in all cases: cell-based, human
[1] = system: hPSCs; experiment: Flow cytometry of CHX10 at day 17 of V2a interneuron differentiation
Method: hPSCs were seeded in mTeSR supplemented with 10 μM ROCK inhibitor and dual SMAD inhibitors 0.2 μM LDN193189 and 10 μM SB431542 ([…], Cambridge, Mass.) at 5,000-100,000 cells/cm^2 onto 24-well plates coated with Matrigel. On day 3, medium was changed to mTeSR supplemented with dual SMAD inhibitors only. On day 5, the base medium was switched to neural induction medium (DMEM F:12 (Corning), N2 supplement (Life Technologies, Carlsbad, Calif.), L-Glutamine (VWR), 2 μg/ml heparin (Sigma Aldrich, St. Louis, Mo.), non-essential amino acids (VWR), penicillin-streptomycin (VWR) supplemented with fresh 0.4 μg/ml ascorbic acid (Sigma Aldrich) and 10 ng/ml brain derived neurotrophin factor (BDNF, R&D Systems, Minneapolis, Minn.)) supplemented with dual SMAD inhibitors and 10 nM-10 μM retinoic acid (Sigma Aldrich). […] Medium was changed every 2 to 3 days throughout the differentiation, with fresh supplements added each time for up to 17 days.

[2] = system: hPSCs; experiment: Total number of cells and yield of CHX10+ cells per input pluripotent cell at day 17; details: for number of viable cells per 24-well culture at day 17: 100 nM RA and 100 nM pur, FIG. 2B
Method: hPSCs were seeded in mTeSR supplemented with 10 μM ROCK inhibitor and dual SMAD inhibitors 0.2 μM LDN193189 and 10 μM SB431542 (StemGent, Cambridge, Mass.) at 5,000-100,000 cells/cm^2 onto 24-well plates coated with Matrigel. On day 3, medium was changed to mTeSR supplemented with dual SMAD inhibitors only. On day 5, the base medium was switched to neural induction medium (DMEM F:12 (Corning), N2 supplement (Life Technologies, Carlsbad, Calif.), L-Glutamine (VWR), 2 μg/ml heparin (Sigma Aldrich, St. Louis, Mo.), non-essential amino acids (VWR), penicillin-streptomycin (VWR) supplemented with fresh 0.4 μg/ml ascorbic acid (Sigma Aldrich) and 10 ng/ml brain derived neurotrophin factor (BDNF, R&D Systems, Minneapolis, Minn.)) supplemented with dual SMAD inhibitors and 10 nM-10 μM retinoic acid (Sigma Aldrich). On day 7, dual SMAD inhibition was ceased and 10 nM-10 μM retinoic acid, 10 nM-10 μM pur (EMD Millipore, Darmstast, Germany) and 100 nM-10 μM N—[N-(3,5-Difluorophenacetyl)-L-alanyl]-S-phenylglycine t-butyl ester (DAPT) were added to the neural induction medium. Medium was changed every 2 to 3 days throughout the differentiation, with fresh supplements added each time for up to 17 days.

[3] = system: pluripotent stem cells; experiment: Wnt activation in the V2a interneuron protocol, gene expression of cervical and thoracic markers; details: FIG. 20B
Method: Samples were lysed and RNA was extracted using the E.Z.N.A. Total RNA Kit (Omega Biotek, Norcross, Ga.). RNA (500 ng) was reverse-transcribed into cDNA using the iScript cDNA synthesis kit (BioRad, Hercules, Calif.). RT-qPCR was performed using Fast SYBR Green Master Mix (Life Technologies) and the primers listed in Table 1 below were annealed at 61° C. on the Step One Plus Real-Time PCR System (Life Technologies). Fold changes were calculated using the ΔΔCt method. For high throughput gene expression analysis, Fluidigm was used. Preamplified cDNA samples and primers were mixed with Sso Fast EvaGreen Supermix (BioRad) then loaded onto a 96.96 Dynamic Array integrated fluidic circuit (IFC) and ran on a BioMark HD system.
(§1) For the “D0 CHIR treated” group, the GSK3 inhibitor, 2 μM CHIR990201 was added into the V2a interneuron protocol from day 0 to day 7. For the “D-2 CHIR treated” group, pluripotent stem cells were initially seeded at a higher density (120 k cells/cm^2) in the presence of 2 μM CHIR990201 for two days. The cells were then dissociated and re-plated at 25 k/cm^2 to begin the V2a interneuron protocol. CHIR990201 was kept in the media composition from day 0 to day 7. Further culture and analysis proceeded as previously described.

[4] = system: pluripotent stem cells; experiment: Wnt activation in the V2a interneuron protocol, % CHX10+ cells; details: FIG. 20A
Method: as §1

[5] = 2 μM CHIR added at D0, day 0 to day 7
[6] = 2 μM CHIR added at D-2 and passage with CHIR, kept to day 7

For `c1ccc2c(Oc3nc(Nc4ccc(N5CCOCC5)cc4)c4ncn(C5CCCCC5)c4n3)cccc2c1` [pur, 9-Cyclohexyl-N-[4-(4-morpholinyl)phenyl]-2-(1-naphthalenyloxy)-9H-purin-6-amine], the “Chx10+ cells after 17 days of differentiation” value ([1]; pur 100 nM from day 7, 100 nM RA and 5 μM DAPT, FIG. 1D) was roughly 30%.
For `CC1=C(/C=C/C(C)=C/C=C/C(C)=C/C(=O)O)C(C)(C)CCC1` [RA, retinoic acid], the “CHX10+ population at day 17” value ([1]; RA 100 nM starting at day 5, pur 1 μM and DAPT 5 μM from day 7, FIG. 1C) was roughly 6%.
With `C[C@H](NC(=O)Cc1cc(F)cc(F)c1)C(=O)NC(C(=O)OC(C)(C)C)c1ccccc1` (some centres unmarked) [DAPT] the “increase in number of CHX10+ cells per input pluripotent cell” value ([2]; 1 μM DAPT compared with 5 μM DAPT, FIG. 2C) was roughly 50%, the “number of viable cells per 24-well culture at day 17” value ([2]; DAPT 1 μM) was 4.40 million cells and the “number of viable cells per 24-well culture at day 17” value ([2]; DAPT 5 μM) was 2.85 million cells. The “CHX10+ population at day 17” value ([1]; DAPT 5 μM from day 7, RA and pur 100 nM each, FIG. 1E) was roughly 15% and the “CHX10+ population at day 17” value ([1]; DAPT 1 μm from day 7, RA and pur 100 nM each, FIG. 1E) was roughly 15%.
With `Cc1cnc(-c2cnc(NCCNc3ccc(C#N)cn3)nc2-c2ccc(Cl)cc2Cl)[nH]1` [CHIR, 6-[[2-[[4-(2,4-Dichlorophenyl)-5-(5-methyl-1H-imidazol-2-yl)-2-pyrimidinyl]amino]ethyl]amino]-3-pyridinecarbonitrile] the “cervical and thoracic gene expression” value [3, 5] was “slightly increased”, the “cervical and thoracic gene expression” value [3, 6] was “increased” and the “% of CHX10+ cells” value [4, 5] was “did not decrease”. For the same compound, the “% of CHX10+ cells” value [4, 6] was “greatly increased”.
